Measured values taken from the Bradley open melting point set (2014).
Values joined by “and” are separate entries in the source; they are usually repeats but may differ in a detail not shown here. Equal entries are not always repeated. Structures can show the parent of a compound that is named as a salt.

| Structure (SMILES) | melting point |
| --- | --- |
| CCc1c(C)[nH]c2c1C(=O)C(CN1CCOCC1)CC2 (stereo unspecified) [molindone] | 180 °C |
| CCCCC(=O)O [N-Valeric Acid] | -34 °C |
| CC(Oc1cccc(Cl)c1)C(=O)O (stereo unspecified) [2-(3-chlorophenoxy)propionic acid] | 115 °C |
| CCCCCCCCCCCCN(CCCCCCCCCCCC)CCCCCCCCCCCC [tri-n-dodecylamine] | 15 °C |
| c1ccc2c(c1)cc1ccc3cccc4ccc2c1c34 [benzo[a]pyrene] | 176 °C and 179 °C |
| CC(=O)Cl [acetyl_chloride] | -112 °C |
| CS(C)=O [dimethyl sulfoxide] | 18 °C |
| OC[C@H]1O[C@H](O[C@H]2[C@H](O)[C@@H](O)[C@@H](O[C@H]3[C@H](O)[C@@H](O)C(O)O[C@@H]3CO)O[C@@H]2CO)[C@H](O)[C@@H](O)[C@@H]1O (stereo partly specified) | 133 °C |
| C=C[C@H]1C[N@@]2CC[C@H]1C[C@H]2[C@H](O)c1ccnc2ccccc12 [cinchonidine] | 204 °C |
| CS [Methanethiol] | -121 °C |
| Nc1ccc([N+](=O)[O-])cc1Cl [2-Chloro-4-nitroaniline] | 108 °C |
| CC(C)Nc1ccccc1 [N-isopropylaniline] | -32 °C |
| CC(=O)C(=O)O [Pyruvic acid] | 11.8 °C |
| COC=O [Methyl formate] | -100 °C |
| S=C=Nc1ccccc1I [2-iodophenyl isothiocyanate] | 38 °C |
| CCCCC(CC)CO (stereo unspecified) [2-ethyl-1-hexanol] | -76 °C |
| O=[N+]([O-])c1ccc(Cl)cc1 [1-Chloro-4-nitrobenzene] | 83.6 °C |
| CC(C)(F)C(Br)C(=O)O (stereo unspecified) [2-bromo-3-fluoroisovaleric acid] | 54 °C |
| Cc1cc(C)cc(C)c1 [Mesitylene] | -45 °C |
| CN(C)CCCN [N,N-dimethyl-1,3-propanediamine] | -70 °C |
| c1ccc2c(c1)CCCC2 [1,2,3,4-tetrahydronaphthalene(tetralin)] | -35 °C |
| C=C(C)[C@@H]1CCC2=CC(=O)C[C@@H](C)[C@]2(C)C1 | 36.9 °C |
| O=[N+]([O-])c1ccccc1 [nitrobenzene] | 6 °C |
| CC(=O)CCC(C)=O [2,5-hexanedione] | -6 °C |
| O=[N+]([O-])c1ccc(Cl)cc1 [4-chloronitrobenzene] | 83.5 °C |
| CCCCOCCO [2-Butoxyethanol] | -75 °C |

| Structure (SMILES) | melting point |
| --- | --- |
| Clc1cc(Cl)c(Cl)c(Cl)c1 [1,2,3,5-Tetrachlorobenzene] | 51.5 °C |
| O=C(Cl)c1ccc(F)cc1 [4-fluorobenzoyl chloride] | 10 °C |
| CCOC(C)(C)C [tert-butyl ethyl ether] | -94 °C |
| CC(C)C [Isobutane] | -160 °C |
| OC1[C@H]2CC[C@@H]1[C@H]1C=C[C@@H]2O1 (stereo partly drawn) [(1R,2S,5R,6S)-9-oxatricyclo[4.2.1.1~2,5~]dec-7-en-10-ol] | 122 °C |
| CN[C@@H](C)[C@H](O)c1ccccc1 [(1R,2S)-2-(Methylamino)-1-phenylpropan-1-ol] | 36 °C |
| CCC(C)C [Isopentane] | -160 °C |
| O=C1Nc2ccc(Cl)cc2C(c2ccccc2Cl)=NC1O (stereo unspecified) [Lorazepam] | 167 °C |
| COC(C)(C)OC [2,2-Dimethoxypropane] | -47 °C |
| C/C=C\C(C)(C)C [4,4-dimethyl-cis-2-pentene] | -135 °C |
| COC(=O)c1ccccc1C(=O)OC [dimethyl phthalate] | 5 °C |
| CN[C@@H](C)[C@H](O)c1ccccc1 [ephedrine] | 34 °C |
| Cc1cccc(C)c1N [2,6-dimethylaniline] | 12 °C |
| CC(C)c1ccc(Cl)cc1 [p-chlorocumene] | -12 °C |
| CC(C)CCCC(C)C1CCC2C3CC=C4CC(Cl)CCC4(C)C3CCC12C (stereo unspecified) [3-chlorocholest-5-ene] | 93 °C |
| CC(=O)Oc1ccc(CC#N)cc1 [p-acetoxy_phenylacetonitrile] | 50 °C |
| CC(Br)CCCBr (stereo unspecified) [1,4-dibromopentane] | -34 °C |
| O=C(O)CCC(=O)C(=O)O [2-oxopentanedioic acid] | 116 °C |
| CC(=O)S [thioacetic acid] | -17 °C |
| CC(C)C(C)(C)O [2,3-dimethyl-2-butanol] | -10 °C |
| C[C@@H]1C[C@H]1C (relative stereo) [trans-1,2-dimethylcyclopropane] | -150 °C |
| CCOP(=S)(OCC)Oc1nc(Cl)c(Cl)cc1Cl [O,O-Diethyl O-(3,5,6-trichloropyridin-2-yl) phosphorothioate] | 42.5 °C |
| C=CCC1(C(C)C)C(=O)NC(=O)NC1=O [aprobarbital] | 143 °C |
| Oc1ccccc1Cl [o-chlorophenol] | 8 °C |
| ClCc1ccc(Cl)c(Cl)c1 [3,4-dichlorobenzyl chloride] | -3 °C |
| C=CCCCCC(=O)O [6-heptenoic acid] | -6 °C |

Continued, values first:

| melting point | Structure (SMILES) |
| --- | --- |
| 116 °C | CCCCC(=O)N(Cc1ccc(-c2ccccc2-c2nnn[nH]2)cc1)C(C(=O)O)C(C)C (stereo unspecified) |
| 236 °C | NC(Cc1cc(I)c(Oc2cc(I)c(O)c(I)c2)c(I)c1)C(=O)O (stereo unspecified) [Dextrothyroxine] |
| 116 °C | O=C(O)c1ccc(-n2nc(-c3ccccc3O)nc2-c2ccccc2O)cc1 [Deferasirox] |
| 158 °C | Cc1ccc(-c2cc(C(F)(F)F)nn2-c2ccc(S(N)(=O)=O)cc2)cc1 [celecoxib] |
| 248 °C | O=C1Nc2c(Cl)ccc(Cl)c2C1=O [4,7-dichloroisatin] |
| 184 °C | O=C(O)c1cccc([N+](=O)[O-])c1Cl [2-chloro-3-nitrobenzoic acid] |
| 123 °C | O=C(O)c1ccccc1 [benzoic_acid] |
| 124 °C | O=C(N[C@@H](Cc1c[nH]c2ccccc12)C(=O)O)OCc1ccccc1 [N(alpha)-benzyloxycarbonyl-l-tryptophan] |
| 86 °C | CC(=O)c1c(C)c(C)c(C)c(C)c1C [2',3',4',5',6'-pentamethylacetophenone] |
| 217 °C | Oc1ccc2ccccc2c1-c1c(O)ccc2ccccc12 [1,1'-bi(2-naphthol)] |
| 179 °C | O=c1cc(C(F)(F)F)c2ccc(O)cc2o1 [7-hydroxy-4-(trifluoromethyl)coumarin] |
| 270 °C | O=C(O)c1cc[n+]([O-])cc1 [isonicotinic acid n-oxide] |
| 131 °C | [O-]/[N+](=N\c1ccccc1)c1ccc(/N=N/c2ccccc2)cc1 [(E)-1-phenyl-2-{4-[(Z)-phenyl-NNO-azoxy]phenyl}diazene] |
| 96 °C | Oc1cccc2ccccc12 [1-naphthol] |
| 168 °C | O=C(O)c1ccccc1OP(=O)(O)O [fosfosal] |
| 129 °C | Cc1cc(O)ccc1O [2-Methylbenzene-1,4-diol] |
| 188 °C | Cc1cn([C@H]2C[C@H](O)[C@@H](CO)O2)c(=O)[nH]c1=O [Thymidine] |
| 146 °C | Clc1ccc(C(Cn2ccnc2)OCc2csc3c(Cl)cccc23)c(Cl)c1 (stereo unspecified) [sertaconazole] |
| 36 °C | COC(=O)c1ccc(C)c(C)c1 [methyl 3,4-dimethylbenzoate] |
| 199 °C | c1ccc2c(c1)c1ccccc1c1ccccc21 [Triphenylene] |
| 192 °C | O=C1C=C(O)C(=O)c2ccccc21 [2-Hydroxy-1,4-naphthoquinone] |
| 170 °C | CC(=O)Nc1ccc(O)cc1 [4-acetamidophenol] |
| 125 °C | CC(=O)/C(=N/Nc1ccc(Cl)cc1)C(=O)C(F)(F)F |
| 58 °C | Cc1cc(Br)ccc1N [4-bromo-2-methylaniline] |
| -15 °C | OCc1ccccc1 [benzyl_alcohol] |

| melting point | Structure (SMILES) |
| --- | --- |
| 168 °C | Nc1cc(Cl)c(O)c(Cl)c1 [4-Amino-2,6-dichlorophenol] |
| 211 °C | Clc1ccc(cc1)NC3=CC4=Nc2ccccc2N(C4=C/C3=NC(C)C)c5ccc(Cl)cc5 [clofazimine] |
| 234 °C (2×) and 237 °C | O=C(CO)[C@@]3(O)CC[C@H]2[C@@H]4CC\C1=C\C(=O)\C=C/[C@]1(C)[C@H]4C(=O)C[C@@]23C [prednisone] |
| 61 °C | COc1ccc2cc(C(C)COC(C)=O)ccc2c1 (stereo unspecified) [Naproxol acetate] |
| 103 °C | CCOc1ccc(B(O)O)cn1 [6-ethoxypyridine-3-boronic acid] |
| 87 °C | COc1ccc(C(=O)C=C(C)c2ccc(OC)cc2)cc1 [trans-4,4'-Dimethoxy-beta-methylchalcone] |
| 157 °C | O=C(O)c1ccccc1O [salicylic acid] |
| 45 °C | O=C(O)CCCc1ccc(F)cc1 [4-(4-fluorophenyl)butyric acid] |
| 268 °C | Cc1cc(-c2ccc(NC=O)c(C)c2)ccc1NC=O [N,N'-(3,3'-dimethylbiphenyl-4,4'-diyl)diformamide] |
| 69 °C | COc1cccc(B(O)O)c1OC [2,3-dimethoxybenzeneboronic acid] |
| 116 °C | CCOC(=O)c1ccc(O)cc1 [ethyl p-hydroxybenzoate] |
| 190 °C | NC(=O)N1c2ccccc2C=Cc2ccccc21 [carbamazepine] |
| 79 °C | Cc1cc(C)c(C)cc1C [1,2,4,5-tetramethylbenzene] |
| 57 °C | O=Cc1ccc(Br)cc1 [p-bromobenzaldehyde] |
| 72 °C | Cc1cc(C)c(Br)cc1C [5-bromo-1,2,4-trimethylbenzene] |
| 83 °C | Nc1ccccc1CO [2-aminobenzyl alcohol] |
| 66 °C | CCCCCCc1ccc(O)cc1O [4-n-hexylresorcinol] |
| 245 °C | COc1cc(B(O)O)cc(OC)c1OC [3,4,5-trimethoxybenzeneboronic acid] |
| 40 °C | COc1ccc(C=O)c(OC)c1OC [2,3,4-trimethoxybenzaldehyde] |
| 45.5 °C | Cc1ccc(-n2c(C)ccc2C)cc1 [OSM-S-26] |
| 154 °C | Cc1cc(C)c(C(=O)O)c(C)c1 [2,4,6-trimethylbenzoic acid] |
| 113 °C | CC(C(=O)O)c1ccc(-c2ccccc2)c(F)c1 (stereo not drawn) [2-fluoro-alpha-methyl-4-biphenylacetic acid] |
| 14 °C | c1ccc2c(c1)CCCN2 [1,2,3,4-tetrahydroquinoline] |
| 194 °C | O=C(O)c1cc2ccccc2o1 [benzo[b]furan-2-carboxylic acid] |
